Test results reported in US20110082130A1 (LIGAND PHARMACEUTICALS, INC., priority 2006, published 2011).

These molecules were tested against T1, chimeric human H3 receptor (Homo sapiens, UniProt Q9Y5N1) (assay: Chimeric human H3 receptor screening GTP binding assay (inhibition of histamine-stimulated GTP-gamma35S binding, Example 8)). Settings: 4 μM of the compound, 1 μM histamine, "†" in Ki of Table II, read-out: percent inhibition of the signal obtained with 1 μM histamine.
T1 construct: made in house; host or cells: Sf9 insect cells (baculovirus); P2 membrane preparation
T1 sequence (Q9Y5N1 with tags, fused parts or gaps): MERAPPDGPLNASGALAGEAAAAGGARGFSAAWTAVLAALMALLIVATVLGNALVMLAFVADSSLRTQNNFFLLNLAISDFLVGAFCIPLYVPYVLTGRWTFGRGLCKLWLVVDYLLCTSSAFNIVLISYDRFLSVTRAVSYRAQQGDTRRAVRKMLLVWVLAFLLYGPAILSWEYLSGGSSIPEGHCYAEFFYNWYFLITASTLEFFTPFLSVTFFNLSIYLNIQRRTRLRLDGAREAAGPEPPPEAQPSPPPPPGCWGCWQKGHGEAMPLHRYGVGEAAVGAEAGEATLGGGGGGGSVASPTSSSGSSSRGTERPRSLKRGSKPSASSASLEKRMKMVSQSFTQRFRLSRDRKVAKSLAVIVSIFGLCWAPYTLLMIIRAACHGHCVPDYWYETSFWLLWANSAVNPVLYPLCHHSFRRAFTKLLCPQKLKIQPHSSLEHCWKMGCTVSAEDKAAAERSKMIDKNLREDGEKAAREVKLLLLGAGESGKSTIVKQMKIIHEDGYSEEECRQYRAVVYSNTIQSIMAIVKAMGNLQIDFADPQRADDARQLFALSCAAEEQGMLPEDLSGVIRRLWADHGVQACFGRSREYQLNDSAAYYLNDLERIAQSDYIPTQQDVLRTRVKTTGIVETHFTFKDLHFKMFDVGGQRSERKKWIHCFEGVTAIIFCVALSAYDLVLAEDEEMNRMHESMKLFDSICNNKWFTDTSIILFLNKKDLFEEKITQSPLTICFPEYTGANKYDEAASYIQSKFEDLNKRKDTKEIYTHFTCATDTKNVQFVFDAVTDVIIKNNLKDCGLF
Type: biochemical
Description: This Example illustrates a representative screening assay for evaluating inhibition of histamine-stimulated GTP-gamma^35S binding. Such GTP binding activity can be used to identify H3 antagonists and inverse agonists. A compound analyzed in this assay is referred to herein as a “test compound,” and the initial identification of antagonists and inverse agonists is performed using a test compound concentration of 4 μM.
Four independent baculoviral stocks (one directing the expression of the chimeric human H3 receptor and three directing the expression of each of the three subunits of a heterotrimeric G-protein) are used to infect a culture of Sf9 cells as described above. P2 membranes are prepared as described above, and are resuspended by Dounce homogenization (tight pestle) in GTP binding assay buffer (50 mM Tris pH 7.4, 120 mM NaCl, 5 mM MgCl2, 2 mM EGTA, 1 mg/ml BSA, 0.2 mg/ml bacitracin, 0.02 mg/ml aprotinin, 0.01 mg/ml saponin, 10 μM GDP) and added to assay tubes at a concentration of 35 μg protein/reaction tube. Non-radiolabeled test compounds are added to separate reactions at a concentration of 4 μM along with 1 μM histamine (agonist). Reactions are initiated by the addition of […] GTP-gamma^35S with a final assay volume of 0.20 ml.
After a 60-min incubation at room temperature, reactions are terminated by vacuum filtration over GF/C filters (pre-soaked in 50 mM Tris pH 7.4, 120 mM NaCl plus 0.1% BSA) followed by washing with ice-cold buffer (50 mM Tris pH 7.4, 120 mM NaCl). The amount of receptor-bound (and thereby membrane-bound) GTP-gamma^35S is determined by measuring the bound radioactivity, preferably by liquid scintillation spectrometry of the washed filters. Non-specific binding is determined using 10 uM GTP-gammaS and typically represents less than 5 percent of total binding. After subtraction of non-specific binding, data is expressed as percent inhibition of 1 μM histamine signal.
Neutral antagonists are those test compounds that reduce the histamine-stimulated GTP binding activity towards, but not below, baseline levels. In contrast, in the absence of added histamine, inverse agonists reduce the GTP binding activity of the receptor-containing membranes below baseline. Any test compound that elevates GTP binding activity above baseline in the absence of added histamine in this assay is defined as having agonist activity.

Inhibition at 4 µM, ≥ 90%:
Cc1ccc(-c2ccc3c(c2)CCN(CC(=O)N2CCN(C(C)C)CC2)C3)cc1 [Compound 438, 2-[2-(4-isopropylpiperazin-1-yl)-2-oxoethyl]-6-(4-methylphenyl)-1,2,3,4-tetrahydroisoquinoline]
CC(C)c1cccc(-c2ccc3c(c2)CCN(CC(=O)N2CCN(C4CCC4)CC2)C3)c1 [Compound 439, 2-[2-(4-cyclobutylpiperazin-1-yl)-2-oxoethyl]-6-(3-isopropylphenyl)-1,2,3,4-tetrahydroisoquinoline]
CC(C)c1cccc(-c2ccc3c(c2)CCN(CC(=O)N2CCN(C4CCCC4)CC2)C3)c1 [Compound 440, 2-[2-(4-cyclopentylpiperazin-1-yl)-2-oxoethyl]-6-(3-isopropylphenyl)-1,2,3,4-tetrahydroisoquinoline]
CC(C)c1cccc(-c2ccc3c(c2)CCN(CC(=O)N2CCN(C4CCCCC4)CC2)C3)c1 [Compound 441, 2-[2-(4-cyclohexylpiperazin-1-yl)-2-oxoethyl]-6-(3-isopropylphenyl)-1,2,3,4-tetrahydroisoquinoline]
CC(C)c1cccc(-c2ccc3c(c2)CCN(CC(=O)N2CCN(C(C)C)CC2)C3)c1 [Compound 442, 6-(3-isopropylphenyl)-2-[2-(4-isopropylpiperazin-1-yl)-2-oxoethyl]-1,2,3,4-tetrahydroisoquinoline]
CC(C)c1ccc(-c2ccc3c(c2)CCN(CC(=O)N2CCN(C4CCC4)CC2)C3)cc1 [Compound 443, 2-[2-(4-cyclobutylpiperazin-1-yl)-2-oxoethyl]-6-(4-isopropylphenyl)-1,2,3,4-tetrahydroisoquinoline]
CC(C)c1ccc(-c2ccc3c(c2)CCN(CC(=O)N2CCN(C4CCCC4)CC2)C3)cc1 [Compound 444, 2-[2-(4-cyclopentylpiperazin-1-yl)-2-oxoethyl]-6-(4-isopropylphenyl)-1,2,3,4-tetrahydroisoquinoline]
CC(C)c1ccc(-c2ccc3c(c2)CCN(CC(=O)N2CCN(C4CCCCC4)CC2)C3)cc1 [Compound 445, 2-[2-(4-cyclohexylpiperazin-1-yl)-2-oxoethyl]-6-(4-isopropylphenyl)-1,2,3,4-tetrahydroisoquinoline]
CC(C)c1ccc(-c2ccc3c(c2)CCN(CC(=O)N2CCN(C(C)C)CC2)C3)cc1 [Compound 446, 6-(4-isopropylphenyl)-2-[2-(4-isopropylpiperazin-1-yl)-2-oxoethyl]-1,2,3,4-tetrahydroisoquinoline]
Cc1ccc(-c2ccc3c(c2)CCN(CC(=O)N2CCN(C4CCC4)CC2)C3)cc1C [Compound 447, 2-[2-(4-cyclobutylpiperazin-1-yl)-2-oxoethyl]-6-(3,4-dimethylphenyl)-1,2,3,4-tetrahydroisoquinoline]
Cc1ccc(-c2ccc3c(c2)CCN(CC(=O)N2CCN(C4CCCC4)CC2)C3)cc1C [Compound 448, 2-[2-(4-cyclopentylpiperazin-1-yl)-2-oxoethyl]-6-(3,4-dimethylphenyl)-1,2,3,4-tetrahydroisoquinoline]
Cc1ccc(-c2ccc3c(c2)CCN(CC(=O)N2CCN(C4CCCCC4)CC2)C3)cc1C [Compound 449, 2-[2-(4-cyclohexylpiperazin-1-yl)-2-oxoethyl]-6-(3,4-dimethylphenyl)-1,2,3,4-tetrahydroisoquinoline]
Cc1ccc(-c2ccc3c(c2)CCN(CC(=O)N2CCN(C(C)C)CC2)C3)cc1C [Compound 450, 6-(3,4-dimethylphenyl)-2-[2-(4-isopropylpiperazin-1-yl)-2-oxoethyl]-1,2,3,4-tetrahydroisoquinoline]
CCCCc1ccc(-c2ccc3c(c2)CCN(CC(=O)N2CCN(C4CCC4)CC2)C3)cc1 [Compound 451, 6-(4-butylphenyl)-2-[2-(4-cyclobutylpiperazin-1-yl)-2-oxoethyl]-1,2,3,4-tetrahydroisoquinoline]
